Results reported in patent US20250144069A1, “BILOBALIDE DERIVATIVE COMPOUNDS FOR TREATING NEUROLOGICAL DISEASES AND CANCERS” (The Chinese University of Hong Kong, priority 2023, published 2025).

Legend:
[1] = tested on: BV-2 murine microglial cell line; test: RSL3-induced ferroptosis model, cell viability (CCK-8); settings: BV-2, RSL3 500 nM 2 h, then 50 μM compound 22 h
[2] = tested on: HMC3 microglial cell line; test: as above; assay type: cell-based
HMC3 cells [3] = assay type: cell-based; settings: then 50 μM compound 22 h
HMC3 cells [4] = test: Lipid peroxidation level by flow cytometry using C11-BODIPY; assay type: cell-based; settings: HMC3, 50 nM RSL3 2 h, then 50, 25 and 12.5 μM compound 3 h
Experimental: For flow cytometry, HMC3 cells (seeded 50,000 cells per well on 24-well plate one day prior to the experiment) were pretreated with 50 nM RSL3 for 2 h. […] After which medium was replaced with BODIPY™ 581/591C11 (10 μM, Invitrogen) or CellROX™ Green (5 μM, Invitrogen) for 30 min staining. Cells were then washed 3 times with PBS and collected. Fluorescence was measured by BD FACSympgony A5.2 SORP Flow Cell Analyzer (BD Biosciences).
Disequilibrium ROS level acts as a direct initiator of lipid peroxidation, which is one of the major hallmarks of ferroptosis. In this example, HMC3 cells according to the conditions in Table 4 were subjected to measurement of lipid peroxidation level using flow cytometry and the lipid peroxidation sensor C11-BODIPY.
For flow cytometry, HMC3 cells (seeded 50,000 cells per well on 24-well plate one day prior to the experiment) were pretreated with 50 nM RSL3 for 2 h. After RSL3 treatment, medium was replaced by DMSO (0.1%) only, SXQ087-1 (10, 5 and 2.5 μM), following by 3 h treatment. After which medium was replaced with BODIPY™ 581/591C11 (10 μM, Invitrogen) for 30 min staining. Cells were then washed 3 times with PBS and collected. Fluorescence was measured by BD FACSympgony A5.2 SORP Flow Cell Analyzer (BD Biosciences).
Lipid peroxidation is one of the major hallmarks of ferroptosis. In this example, HMC3 cells according to the conditions in Table 5 were subjected to measurement of lipid peroxidation level using flow cytometry and the lipid peroxidation sensor C11-BODIPY.

[5] = tested on: HT22 mouse hippocampal cell line; test: RSL3-induced ferroptosis model, cell viability (CCK-8)
Experimental: In this example, the anti-ferroptotic properties of the BB analogues described in preceding examples were evaluated by a RSL3-induced ferroptosis model. […] To evaluate the anti-ferroptosis activity of BB analogues, we developed a phenotypic screening based on RSL3-induced ferroptosis model on HT22 mouse hippocampal cell line, HMC3 microglial cell line and BV-2 murine microglial cell line which were co-treated or pre-treated with RSL3 and BB analogues for 2-24 h, and the cell viability was subsequently measured.
HMC3 cell line was maintained in Minimum Essential Medium (MEM, Gibco) supplemented with 1× non-essential amino acid (Gibco), 1 mM sodium pyruvate (Gibco), 10% fetal bovine serum (FBS) (Gibco) and 1% penicillin/streptomycin (Gibco). BV-2 cell line was maintained in Roswell Park Memorial Institute (RPMI) 1640 medium (Gibco) supplemented with 10% FBS and 1% penicillin/streptomycin, and HT22 cell line was maintained in Dulbecco's Modified Eagle's Medium (DMEM) (Gibco) supplemented with 10% FBS and 1% penicillin/streptomycin. All cells were incubated at 37° C. in a humidified atmosphere under 5% CO2.
For phenotypic screening of bilobalide (BB) analogues, 5,000 cells per well (100 uL volume) of HT22, HMC3 or BV-2 cells were placed in 96-well plate and allowed to adhere for 22 h. After which, cells were pre-treated with 200 nM (on HT22, HMC3) or 500 nM (on BV-2) of RSL3 (Bidepharm) for 2 h respectively. Medium was then replaced by 50 μM BB analogues and followed by 22 h incubation subsequently. Cell viability was measured using cell counting kit-8 (CCK-8) (MCE). For dose-response of BB analogues, RSL3, HT22 and HMC3 cells (seeded on 96-well plates at 5,000 cells per well) were treated with multiple doses of RSL3 for 2 h. […] Cell viability was measured after 22 h treatment by CCK-8. […] Cell viability was measured by CCK-8 using CLARIOstar monochromator multimode plate reader under 450 nm wavelength.
In this example, the cells were pre-treated with RSL3 (200 nM for HT22 and HMC3, 500 nM for BV-2) for two hours, followed by bilobalide analogues treatment (50 PM) for 22 hours. Cell viability was measured using cell counting kit-8 (CCK-8); n=5 technical replicates. […] Such effect was further investigated by treating the cell lines with various doses of RSL3.

A549 cells = test: Single-dose CCK-8 cell viability screening (adherent cells); assay type: cell-based, human; settings: Homo sapiens, A549, 48 h, A549 cells, 50 uM, 48 h, CCK-8; read-out: % Viability (50 uM, 48 h) A549
[6] = as above; assay type: cell-based, human; settings: Homo sapiens, A549, 48 h, average of A549 and Jurkat % viability, 50 uM, 48 h
GAPDH = GAPDH protein level by Western-blot after RSL3; assay type: cell-based; settings: HMC3, 500 nM RSL3 2 h, then various concentrations of compound 8 h
Experimental: In FIN56 assay, HMC3 (300,000 cells per well on 6-well plate) was pre-treated with FIN56 (2.5, 1.25, 0.625 μM) for 2 h, followed by 8 h treatment of DMSO only (0.1%) or XBB-037 (50 μM). In RSL3 assay, HMC3 (300,000 cells per well on 6-well plate) was pre-treated with RSL3 (750, 500, 250 nM) for 2 h, followed by 4 h or 8 h treatment of DMSO only (0.1%) or XBB-037 (50 μM). […] Antibodies for GPX4 (52455, CST) was used at 1:500 dilution, β-Actin (AC026, ABclonal) was used at 1:400,000 dilution, GAPDH (AC035, ABclonal) was used at 1:3000 dilution. […] Band intensity was normalized by image lab software.
This observation reflected the governing of GPX4 by bilobalide analogue XBB-037, which played an important role in the mechanism against RSL3-induced ferroptosis.

Jurkat cells = test: Single-dose CCK-8 cell viability screening (suspension cells); assay type: cell-based, human; settings: Homo sapiens, Jurkat, 48 h, Jurkat cells, 50 uM, CCK-8, read-out: % Viability (50 uM, 48 h) Jurkat

CC(C)(C)[C@]1(O)C[C@@H]2OC(=O)C[C@@]23C(=O)O[C@@H]2N(c4ccc(N)cc4)C(=O)[C@H](OC(=O)c4ccccc4)[C@]213 [XBB-037, 4-(3aS,5aS,8R,9R,10aS)-8-(benzoyloxy)-9-(tert-butyl)-9-hydroxy-2,4,7-trioxohexahydro-4H,9H-furo[3″,2″:2′,3′]cyclopenta[1′,2′:3,4]furo[2,3-b]pyrrol-6(5aH)-yl)benzenaminium chloride]
inhibition of RSL3-induced ferroptosis (phenotypic screening, cell viability) [1]: effectively inhibit ferroptosis | inhibition of RSL3-induced ferroptosis (phenotypic screening, cell viability) ([2]; HMC3, RSL3 200 nM 2 h, then 50 μM compound 22 h): effectively inhibit ferroptosis | shift of RSL3 dose-dependent viability curve ([2]; HMC3, multiple doses of RSL3, 50 μM compound): diminished RSL3 lethality | protection against FIN56-induced cell death (cell viability) (HMC3 cells [3]; HMC3, FIN56 2 h): effectively suppressed FIN56-induced cell death | protection against ML162 lethality (cell viability) (HMC3 cells [3]; HMC3, ML162 2 h): alleviated the lethality of ML162 | protection against ML210 lethality (cell viability) (HMC3 cells [3]; HMC3, ML210 2 h): alleviated the lethality of ML210 | protection against erastin-induced lethality (cell viability) (HMC3 cells [3]; HMC3, erastin 2 h): suppressed erastin-induced lethality | lipid peroxidation level (C11-BODIPY) (HMC3 cells [4]): significant down-regulation of RSL3-induced lipid peroxidation accumulation in a dose-dependent manner | inhibition of RSL3-induced ferroptosis (phenotypic screening, cell viability) ([5]; HT22, RSL3 200 nM 2 h, then 50 μM compound 22 h): effectively inhibit ferroptosis | shift of RSL3 dose-dependent viability curve ([5]; HT22, multiple doses of RSL3, 50 μM compound): diminished RSL3 lethality | viability at 50 µM (A549 cells): 95% | viability at 50 µM [6]: 90.5% | GAPDH level after RSL3 (GAPDH): restored the level of GAPDH | viability at 50 µM (Jurkat cells): 86%
